Data as given in PubChem BioAssay AID2060507 (Molecular Pharmacology Branch, DTP, NCI, 2025).
Blank lines part the entries; values can stand above or below the compound they belong to.

System: 519858-162-T-J1-PDC complex spheroid viability
Test: Anticancer human tumor 519858-162-T-J1-PDC patient-derived colon adenocarcinoma cell line growth inhibition [GQUAD]
Conditions: for IC50: curve of first compound; for viability, T/C: stronger effect = lower value
In short: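 Viability of tumor cells grown as complex spheroids with endothelial and stromal cells, exposed to drug combinations. Top concentration at or near clinical Cmax (else 10 microM), diluted in half-log increments.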

[1] = second compound 0.0316 µM, first compound 0.0316 µM
[2] = second compound 0.0316 µM, first compound 0.1 µM
[3] = second compound 0.0316 µM, first compound 0.316 µM
[4] = second compound 0.0316 µM, first compound 1 µM
[5] = second compound 0.0316 µM, first compound 3.16 µM
[6] = second compound 0.0316 µM, first compound 10 µM
[7] = second compound 0.1 µM, first compound 0.0316 µM
[8] = second compound 0.1 µM, first compound 0.1 µM
[9] = second compound 0.1 µM, first compound 0.316 µM
[10] = second compound 0.1 µM, first compound 1 µM
[11] = second compound 0.1 µM, first compound 3.16 µM
[12] = second compound 0.1 µM, first compound 10 µM
[13] = second compound 0.316 µM, first compound 0.0316 µM
[14] = second compound 0.316 µM, first compound 0.1 µM
[15] = second compound 0.316 µM, first compound 0.316 µM
[16] = second compound 0.316 µM, first compound 1 µM
[17] = second compound 0.316 µM, first compound 3.16 µM
[18] = second compound 0.316 µM, first compound 10 µM
[19] = second compound 1 µM, first compound 0.0316 µM
[20] = second compound 1 µM, first compound 0.1 µM
[21] = second compound 1 µM, first compound 0.316 µM
[22] = second compound 1 µM, first compound 1 µM
[23] = second compound 1 µM, first compound 3.16 µM
[24] = second compound 1 µM, first compound 10 µM
[25] = second compound 3.16 µM, first compound 0.0316 µM
[26] = second compound 3.16 µM, first compound 0.1 µM
[27] = second compound 3.16 µM, first compound 0.316 µM
[28] = second compound 3.16 µM, first compound 1 µM
[29] = second compound 3.16 µM, first compound 3.16 µM
[30] = second compound 3.16 µM, first compound 10 µM
[31] = second compound 10 µM, first compound 0.0316 µM
[32] = second compound 10 µM, first compound 0.1 µM
[33] = second compound 10 µM, first compound 0.316 µM
[34] = second compound 10 µM, first compound 1 µM
[35] = second compound 10 µM, first compound 3.16 µM
[36] = second compound 10 µM, first compound 10 µM
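Throughout, for viability, T/C: 100% = DMSO vehicle control viability.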

Compound: CC(C)(O)C1CCC(Nc2ccc3ncc(-c4cccc(C(F)(F)F)c4)n3n2)CC1 (stereo not drawn) + Cc1[nH]c2ccc(F)cc2c1-c1nc2c3cccnc3c3ncccc3c2[nH]1
IC50 (second compound 0.0316 µM): 2370 nM | IC50 (second compound 0.1 µM): 2200 nM | IC50 (second compound 0.316 µM): 1970 nM | IC50 (second compound 1 µM): 1810 nM | IC50 (second compound 3.16 µM): 1750 nM | IC50 (second compound 10 µM): 1650 nM | viability, T/C [1]: 87.7% | viability, T/C [2]: 99.6% | viability, T/C [3]: 104% | viability, T/C [4]: 98.5% | viability, T/C [5]: 16.1% | viability, T/C [6]: 52.3% | viability, T/C [7]: 101% | viability, T/C [8]: 82.5% | viability, T/C [9]: 97.5% | viability, T/C [10]: 120% | viability, T/C [11]: 26.7% | viability, T/C [12]: 26.9% | viability, T/C [13]: 68.2% | viability, T/C [14]: 84.2% | viability, T/C [15]: 89.3% | viability, T/C [16]: 131% | viability, T/C [17]: 14.9% | viability, T/C [18]: 24.8% | viability, T/C [19]: 88% | viability, T/C [20]: 89.3% | viability, T/C [21]: 99.9% | viability, T/C [22]: 100% | viability, T/C [23]: 7.25% | viability, T/C [24]: 9.88% | viability, T/C [25]: 97.7% | viability, T/C [26]: 84% | viability, T/C [27]: 71.5% | viability, T/C [28]: 122% | viability, T/C [29]: 2.95% | viability, T/C [30]: 4.04% | viability, T/C [31]: 87.5% | viability, T/C [32]: 63% | viability, T/C [33]: 80.3% | viability, T/C [34]: 102% | viability, T/C [35]: 6.15% | viability, T/C [36]: 7.1%

IC50 (second compound 0.0316 µM): > 10000 nM | IC50 (second compound 0.1 µM): > 10000 nM | IC50 (second compound 0.316 µM): > 10000 nM | IC50 (second compound 1 µM): 1980 nM | IC50 (second compound 3.16 µM): 34.2 nM | IC50 (second compound 10 µM): 76.2 nM
Compound: Cc1cccc(N(C)C(=O)C2C(O)CCN2c2nc(C)cc(C(F)(F)F)c2C#N)c1 (stereo not drawn) + Cc1cnc(CNC(=O)c2c(=O)c3ccc(N4CCCN(C)CC4)nc3n3c2sc2ccccc23)cn1
viability, T/C [1]: 87.7% | viability, T/C [2]: 70.2% | viability, T/C [3]: 62.9% | viability, T/C [4]: 75.9% | viability, T/C [5]: 70.7% | viability, T/C [6]: 81.6% | viability, T/C [7]: 67.2% | viability, T/C [8]: 72.2% | viability, T/C [9]: 76% | viability, T/C [10]: 62% | viability, T/C [11]: 50% | viability, T/C [12]: 78.8% | viability, T/C [13]: 82.5% | viability, T/C [14]: 79.8% | viability, T/C [15]: 59.8% | viability, T/C [16]: 52.8% | viability, T/C [17]: 65.5% | viability, T/C [18]: 49.3% | viability, T/C [19]: 71.6% | viability, T/C [20]: 62.1% | viability, T/C [21]: 52.4% | viability, T/C [22]: 56.1% | viability, T/C [23]: 50.5% | viability, T/C [24]: 44.2% | viability, T/C [25]: 48.9% | viability, T/C [26]: 50% | viability, T/C [27]: 45.5% | viability, T/C [28]: 36.2% | viability, T/C [29]: 46.1% | viability, T/C [30]: 40.9% | viability, T/C [31]: 50.6% | viability, T/C [32]: 54.8% | viability, T/C [33]: 44.4% | viability, T/C [34]: 41.2% | viability, T/C [35]: 43.2% | viability, T/C [36]: 43.4%

Compound: COc1cccc2c1C(=O)c1c(O)c3c(c(O)c1C2=O)CC(O)(C(=O)CO)CC3OC1CC(N)C(O)C(C)O1 (stereo not drawn) + CN(C)c1ccc(Nc2c3ccc(NC(=O)CCN4CCCC4)cc3nc3cc(NC(=O)CCN4CCCC4)ccc23)cc1
IC50 (second compound 0.0316 µM): > 10000 nM | IC50 (second compound 0.1 µM): > 10000 nM | IC50 (second compound 0.316 µM): > 10000 nM | IC50 (second compound 1 µM): 8560 nM | IC50 (second compound 3.16 µM): > 10000 nM | IC50 (second compound 10 µM): > 10000 nM | viability, T/C [1]: 80.7% | viability, T/C [2]: 124% | viability, T/C [3]: 97.7% | viability, T/C [4]: 72% | viability, T/C [5]: 71% | viability, T/C [6]: 58.1% | viability, T/C [7]: 90.6% | viability, T/C [8]: 84.6% | viability, T/C [9]: 104% | viability, T/C [10]: 80.8% | viability, T/C [11]: 60.5% | viability, T/C [12]: 60.1% | viability, T/C [13]: 88.4% | viability, T/C [14]: 58.5% | viability, T/C [15]: 79.7% | viability, T/C [16]: 65.1% | viability, T/C [17]: 62.2% | viability, T/C [18]: 75.5% | viability, T/C [19]: 85.5% | viability, T/C [20]: 71.9% | viability, T/C [21]: 56.4% | viability, T/C [22]: 100% | viability, T/C [23]: 65.2% | viability, T/C [24]: 47.1% | viability, T/C [25]: 74.9% | viability, T/C [26]: 60.6% | viability, T/C [27]: 80% | viability, T/C [28]: 66.8% | viability, T/C [29]: 63.2% | viability, T/C [30]: 55.8% | viability, T/C [31]: 57.1% | viability, T/C [32]: 62.9% | viability, T/C [33]: 57.1% | viability, T/C [34]: 60.1% | viability, T/C [35]: 50.3% | viability, T/C [36]: 68.8%

IC50 (second compound 0.0316 µM): 10000 nM | IC50 (second compound 0.1 µM): 3660 nM | IC50 (second compound 0.316 µM): 4180 nM | IC50 (second compound 1 µM): 9070 nM | IC50 (second compound 3.16 µM): 243 nM | IC50 (second compound 10 µM): < 31.6 nM
Compound: COc1ccc([C@@H](O)c2cc(-c3ncnc4cc(N5CCOCC5)ccc34)c(F)cc2Cl)nn1 + Cc1cnc(CNC(=O)c2c(=O)c3ccc(N4CCCN(C)CC4)nc3n3c2sc2ccccc23)cn1
viability, T/C [1]: 72.4% | viability, T/C [2]: 102% | viability, T/C [3]: 81.6% | viability, T/C [4]: 99.3% | viability, T/C [5]: 48.9% | viability, T/C [6]: 53% | viability, T/C [7]: 75.6% | viability, T/C [8]: 70.5% | viability, T/C [9]: 62.8% | viability, T/C [10]: 50.8% | viability, T/C [11]: 55.1% | viability, T/C [12]: 44.8% | viability, T/C [13]: 109% | viability, T/C [14]: 72.9% | viability, T/C [15]: 80% | viability, T/C [16]: 56.1% | viability, T/C [17]: 41.7% | viability, T/C [18]: 52% | viability, T/C [19]: 56.7% | viability, T/C [20]: 49.9% | viability, T/C [21]: 48.1% | viability, T/C [22]: 47.9% | viability, T/C [23]: 67.3% | viability, T/C [24]: 41% | viability, T/C [25]: 58.4% | viability, T/C [26]: 62.2% | viability, T/C [27]: 46.9% | viability, T/C [28]: 30% | viability, T/C [29]: 34.8% | viability, T/C [30]: 45.9% | viability, T/C [31]: 36.6% | viability, T/C [32]: 33.5% | viability, T/C [33]: 49.3% | viability, T/C [34]: 35.2% | viability, T/C [35]: 47.7% | viability, T/C [36]: 37.7%
